Data as given in paper PMC3382171 (PLoS ONE, 2012).

Assays:
Test in all cases: biochemical
EPHB2 = EPHB2 (Homo sapiens, UniProt P29323); details: read-out: Upstate KSS % inhibition at 1uM
Description: (§1) In these selectivity assays the concentration of ATP was set to the Km value of ATP for each kinase tested to allow for a relative potency comparison between the various kinases. The compounds were tested at 1 µM final concentration. […] (A) Kinase selectivity screen (KSS) performed at Upstate Biotechnology. […] (B) KSS performed at University of Dundee (Division of Signal Transduction Therapy). […] (PDF) Click here for additional data file.

Rse = molecular target: T1, Rse (Homo sapiens, UniProt Q06418); details: read-out: Upstate KSS % inhibition at 1uM
T1 construct: gene TYRO3
Description: as §1

SAPK3 = molecular target: T2, SAPK3 (Homo sapiens, UniProt P53778); details: read-out: Upstate KSS % inhibition at 1uM
T2 construct: gene MAPK12
Description: as §1

SRPK2 = SRPK2 (Homo sapiens, UniProt P78362); details: read-out: Upstate KSS % inhibition at 1uM
Description: as §1

MELK = MELK (Homo sapiens, UniProt Q14680); details: read-out: Upstate KSS % inhibition at 1uM
Chain of MELK (Q14680 whole entry): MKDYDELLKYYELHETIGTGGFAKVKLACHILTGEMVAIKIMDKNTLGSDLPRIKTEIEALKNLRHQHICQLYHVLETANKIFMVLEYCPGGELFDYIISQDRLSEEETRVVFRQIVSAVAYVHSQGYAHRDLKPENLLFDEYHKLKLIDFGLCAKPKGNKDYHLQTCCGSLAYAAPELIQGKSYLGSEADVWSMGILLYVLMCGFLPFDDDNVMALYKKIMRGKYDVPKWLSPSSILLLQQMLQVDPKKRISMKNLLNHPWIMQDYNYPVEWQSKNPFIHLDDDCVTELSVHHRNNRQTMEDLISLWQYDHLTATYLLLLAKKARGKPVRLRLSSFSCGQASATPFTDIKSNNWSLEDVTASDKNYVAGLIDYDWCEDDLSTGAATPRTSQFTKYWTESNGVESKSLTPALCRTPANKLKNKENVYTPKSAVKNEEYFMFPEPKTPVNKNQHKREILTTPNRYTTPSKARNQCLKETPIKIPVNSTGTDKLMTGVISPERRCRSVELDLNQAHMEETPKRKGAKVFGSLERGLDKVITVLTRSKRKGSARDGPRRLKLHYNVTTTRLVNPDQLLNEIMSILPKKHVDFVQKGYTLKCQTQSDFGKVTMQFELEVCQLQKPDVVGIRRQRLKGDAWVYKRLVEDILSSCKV
Description: as §1

GSK3alpha = molecular target: T3, GSK3alpha (Homo sapiens, UniProt P49840); details: read-out: Upstate KSS % inhibition at 1uM
T3 construct: gene GSK3A
T3 sequence (P49840 whole entry): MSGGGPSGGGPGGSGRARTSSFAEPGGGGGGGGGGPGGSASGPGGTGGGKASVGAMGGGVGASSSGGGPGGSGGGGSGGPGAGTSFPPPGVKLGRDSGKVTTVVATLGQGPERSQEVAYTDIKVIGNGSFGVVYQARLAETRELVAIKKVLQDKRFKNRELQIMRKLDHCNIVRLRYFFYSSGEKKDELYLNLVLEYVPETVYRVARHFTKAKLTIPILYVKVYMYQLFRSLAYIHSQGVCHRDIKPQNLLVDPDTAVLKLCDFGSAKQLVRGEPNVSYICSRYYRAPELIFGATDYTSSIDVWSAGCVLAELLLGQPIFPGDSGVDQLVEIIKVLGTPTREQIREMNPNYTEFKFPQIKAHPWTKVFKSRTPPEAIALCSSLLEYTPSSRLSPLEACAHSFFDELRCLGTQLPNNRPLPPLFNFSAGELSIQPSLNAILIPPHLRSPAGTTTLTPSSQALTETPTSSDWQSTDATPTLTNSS
Description: as §1

KDR = KDR (Homo sapiens, UniProt P35968); details: read-out: Upstate KSS % inhibition at 1uM
Description: as §1

CAMKIIbeta = molecular target: T4, CAMKIIbeta (Homo sapiens, UniProt Q13554); details: read-out: Upstate KSS % inhibition at 1uM
T4 construct: gene CAMK2B
Description: as §1

CDK2/CyclinA = CDK2/CyclinA (Homo sapiens, UniProt P24941); details: read-out: Upstate KSS % inhibition at 1uM
Description: as §1

WNK2 = WNK2 (Homo sapiens, UniProt Q9Y3S1); details: read-out: Upstate KSS % inhibition at 1uM
Description: as §1

MLCK = molecular target: T5, MLCK (Homo sapiens, UniProt Q15746); details: read-out: Upstate KSS % inhibition at 1uM
T5 construct: gene MYLK
T5 sequence (Q15746 whole entry): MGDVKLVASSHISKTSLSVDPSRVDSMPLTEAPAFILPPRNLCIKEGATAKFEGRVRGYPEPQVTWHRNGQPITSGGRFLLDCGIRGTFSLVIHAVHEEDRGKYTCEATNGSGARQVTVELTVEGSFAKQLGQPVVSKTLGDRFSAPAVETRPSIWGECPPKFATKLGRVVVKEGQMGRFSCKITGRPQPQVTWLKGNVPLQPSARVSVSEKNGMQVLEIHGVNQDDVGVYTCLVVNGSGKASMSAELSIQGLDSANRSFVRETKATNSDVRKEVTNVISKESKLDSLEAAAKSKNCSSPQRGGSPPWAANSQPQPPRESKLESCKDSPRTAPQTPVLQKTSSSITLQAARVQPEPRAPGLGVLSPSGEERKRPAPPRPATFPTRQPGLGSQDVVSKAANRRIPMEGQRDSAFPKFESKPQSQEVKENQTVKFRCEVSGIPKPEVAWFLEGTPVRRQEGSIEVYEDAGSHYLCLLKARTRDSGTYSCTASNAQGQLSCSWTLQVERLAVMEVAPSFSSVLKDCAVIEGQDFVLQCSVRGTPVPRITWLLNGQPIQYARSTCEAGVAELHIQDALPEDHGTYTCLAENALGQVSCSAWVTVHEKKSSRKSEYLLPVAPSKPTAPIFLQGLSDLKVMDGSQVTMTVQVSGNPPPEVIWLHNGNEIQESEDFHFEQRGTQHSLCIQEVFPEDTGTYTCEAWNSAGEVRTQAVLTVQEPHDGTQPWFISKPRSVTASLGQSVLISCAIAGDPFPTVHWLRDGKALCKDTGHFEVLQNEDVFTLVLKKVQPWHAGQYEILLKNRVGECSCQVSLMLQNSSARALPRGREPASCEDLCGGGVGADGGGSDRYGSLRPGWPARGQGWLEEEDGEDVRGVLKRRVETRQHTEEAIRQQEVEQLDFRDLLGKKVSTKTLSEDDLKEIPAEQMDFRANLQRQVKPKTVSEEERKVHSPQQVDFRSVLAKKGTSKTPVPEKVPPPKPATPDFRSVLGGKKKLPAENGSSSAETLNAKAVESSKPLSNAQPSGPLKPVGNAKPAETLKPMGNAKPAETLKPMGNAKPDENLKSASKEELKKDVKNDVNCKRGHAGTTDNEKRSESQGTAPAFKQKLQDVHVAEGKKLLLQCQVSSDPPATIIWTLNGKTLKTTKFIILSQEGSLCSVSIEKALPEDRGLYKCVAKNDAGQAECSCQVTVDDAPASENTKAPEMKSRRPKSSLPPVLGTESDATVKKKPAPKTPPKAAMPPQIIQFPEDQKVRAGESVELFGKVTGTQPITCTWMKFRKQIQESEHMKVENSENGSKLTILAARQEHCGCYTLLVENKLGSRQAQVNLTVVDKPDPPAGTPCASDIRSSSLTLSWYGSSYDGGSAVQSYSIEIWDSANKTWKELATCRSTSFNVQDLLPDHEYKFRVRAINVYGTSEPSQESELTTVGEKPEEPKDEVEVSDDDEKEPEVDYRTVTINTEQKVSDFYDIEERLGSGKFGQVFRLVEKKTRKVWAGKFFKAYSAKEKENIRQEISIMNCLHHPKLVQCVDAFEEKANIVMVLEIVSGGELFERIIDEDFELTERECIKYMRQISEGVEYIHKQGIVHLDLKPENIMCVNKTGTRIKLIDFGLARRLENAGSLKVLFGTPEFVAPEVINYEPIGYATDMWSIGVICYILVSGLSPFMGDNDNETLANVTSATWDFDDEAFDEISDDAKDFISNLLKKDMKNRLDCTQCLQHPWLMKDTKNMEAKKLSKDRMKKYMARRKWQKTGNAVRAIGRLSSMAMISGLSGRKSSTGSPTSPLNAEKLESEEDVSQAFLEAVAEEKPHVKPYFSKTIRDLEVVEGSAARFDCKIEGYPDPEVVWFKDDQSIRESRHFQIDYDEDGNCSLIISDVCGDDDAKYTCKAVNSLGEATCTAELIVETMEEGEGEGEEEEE
Description: as §1

FAK = molecular target: T6, FAK (Homo sapiens, UniProt Q05397); details: read-out: Upstate KSS % inhibition at 1uM
T6 construct: gene PTK2
Description: as §1

PDGFRalpha = molecular target: T7, PDGFRalpha (Homo sapiens, UniProt P16234); details: read-out: Upstate KSS % inhibition at 1uM
T7 construct: gene PDGFRA
Description: as §1

MEK1 = molecular target: T8, MEK1 (Homo sapiens, UniProt Q02750); details: read-out: Upstate KSS % inhibition at 1uM
T8 construct: gene MAP2K1
Description: as §1

DYRK2 = molecular target: T9, DYRK2 (Homo sapiens, UniProt Q92630); details: read-out: Upstate KSS % inhibition at 1uM
T9 sequence (Q92630 1-601): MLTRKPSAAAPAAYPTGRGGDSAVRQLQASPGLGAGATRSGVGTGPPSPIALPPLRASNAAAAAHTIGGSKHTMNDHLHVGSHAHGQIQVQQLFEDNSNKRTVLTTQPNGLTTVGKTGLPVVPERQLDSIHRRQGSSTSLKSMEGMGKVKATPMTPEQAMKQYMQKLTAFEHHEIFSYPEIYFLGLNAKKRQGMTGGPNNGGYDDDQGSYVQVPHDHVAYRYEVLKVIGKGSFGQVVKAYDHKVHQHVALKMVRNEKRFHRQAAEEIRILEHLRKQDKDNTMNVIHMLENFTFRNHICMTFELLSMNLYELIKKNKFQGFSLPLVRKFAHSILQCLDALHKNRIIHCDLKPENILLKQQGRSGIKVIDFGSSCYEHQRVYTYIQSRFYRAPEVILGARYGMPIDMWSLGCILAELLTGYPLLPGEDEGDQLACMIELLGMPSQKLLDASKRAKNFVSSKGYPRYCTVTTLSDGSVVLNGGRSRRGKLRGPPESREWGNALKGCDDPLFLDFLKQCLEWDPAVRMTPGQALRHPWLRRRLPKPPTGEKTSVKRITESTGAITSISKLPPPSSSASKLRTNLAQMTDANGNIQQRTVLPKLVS
Description: as §1

PKCtheta = molecular target: T10, PKCtheta (Homo sapiens, UniProt Q04759); details: read-out: Upstate KSS % inhibition at 1uM
T10 construct: gene PRKCQ
Description: as §1

EPHB4 = EPHB4 (Homo sapiens, UniProt P54760); details: read-out: Upstate KSS % inhibition at 1uM
Chain of EPHB4 (P54760 whole entry): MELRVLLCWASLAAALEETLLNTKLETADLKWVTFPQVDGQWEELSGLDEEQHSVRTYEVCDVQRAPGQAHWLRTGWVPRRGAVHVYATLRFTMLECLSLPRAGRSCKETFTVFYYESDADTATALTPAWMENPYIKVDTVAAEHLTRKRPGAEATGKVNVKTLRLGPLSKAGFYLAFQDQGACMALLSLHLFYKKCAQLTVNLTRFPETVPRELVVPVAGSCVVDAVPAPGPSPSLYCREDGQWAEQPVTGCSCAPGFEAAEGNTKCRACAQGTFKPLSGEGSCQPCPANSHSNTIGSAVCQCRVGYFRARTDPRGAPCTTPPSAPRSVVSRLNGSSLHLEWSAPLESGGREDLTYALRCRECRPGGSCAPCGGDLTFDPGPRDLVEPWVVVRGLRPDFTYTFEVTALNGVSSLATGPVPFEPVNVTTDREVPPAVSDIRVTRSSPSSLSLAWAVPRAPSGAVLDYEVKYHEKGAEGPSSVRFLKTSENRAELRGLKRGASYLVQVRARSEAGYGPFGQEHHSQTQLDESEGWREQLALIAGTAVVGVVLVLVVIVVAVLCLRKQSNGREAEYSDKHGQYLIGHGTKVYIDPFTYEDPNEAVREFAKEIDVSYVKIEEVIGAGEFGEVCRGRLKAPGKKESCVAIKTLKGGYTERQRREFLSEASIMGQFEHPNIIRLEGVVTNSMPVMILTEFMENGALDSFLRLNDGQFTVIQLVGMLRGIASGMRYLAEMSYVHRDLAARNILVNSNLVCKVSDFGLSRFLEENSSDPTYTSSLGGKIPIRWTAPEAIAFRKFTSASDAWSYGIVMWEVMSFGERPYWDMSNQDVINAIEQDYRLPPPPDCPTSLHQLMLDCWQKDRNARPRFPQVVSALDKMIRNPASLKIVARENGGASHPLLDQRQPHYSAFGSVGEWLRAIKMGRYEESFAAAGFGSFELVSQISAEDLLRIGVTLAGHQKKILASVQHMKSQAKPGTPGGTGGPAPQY
Description: as §1

ALK = ALK (Homo sapiens, UniProt Q9UM73); details: read-out: Upstate KSS % inhibition at 1uM
Description: as §1

ZAP70 = ZAP70 (Homo sapiens, UniProt P43403); parameters: gene ZAP70; details: read-out: Upstate KSS % inhibition at 1uM
Chain of ZAP70 (P43403 whole entry): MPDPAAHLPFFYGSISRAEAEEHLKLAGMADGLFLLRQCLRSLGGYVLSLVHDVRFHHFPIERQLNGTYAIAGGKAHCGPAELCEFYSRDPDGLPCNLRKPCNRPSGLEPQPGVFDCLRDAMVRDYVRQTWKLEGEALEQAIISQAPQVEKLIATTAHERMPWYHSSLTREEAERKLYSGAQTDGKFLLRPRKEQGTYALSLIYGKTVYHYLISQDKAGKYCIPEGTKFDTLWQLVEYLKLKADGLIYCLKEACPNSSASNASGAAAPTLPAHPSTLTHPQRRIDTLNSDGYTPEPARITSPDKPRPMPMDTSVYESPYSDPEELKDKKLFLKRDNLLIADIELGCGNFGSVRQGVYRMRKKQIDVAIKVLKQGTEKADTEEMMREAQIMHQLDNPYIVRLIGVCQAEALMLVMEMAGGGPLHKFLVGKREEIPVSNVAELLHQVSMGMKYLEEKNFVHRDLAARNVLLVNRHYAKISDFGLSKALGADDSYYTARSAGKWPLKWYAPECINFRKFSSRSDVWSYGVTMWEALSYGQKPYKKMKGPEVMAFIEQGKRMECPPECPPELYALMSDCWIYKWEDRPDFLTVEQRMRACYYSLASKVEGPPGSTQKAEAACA
Description: as §1

MAPKAPK3 = MAPKAPK3 (Homo sapiens, UniProt Q16644); parameters: gene MAPKAPK3; details: read-out: Dundee KSS % inhibition at 1uM
Description: as §1, with “The METi and RAFi were screened against kinase panels (SelectScreen, Invitrogen; University of Dundee, Division of Signal Transduction Therapy, UK; Upstate Biotechnology/Millipore, Billerica, MA). In” for “In”

JNK/SAPK1c = molecular target: T11, JNK/SAPK1c (Homo sapiens, UniProt P45983); details: read-out: Dundee KSS % inhibition at 1uM
T11 construct: gene MAPK8
Description: as §1, with “The METi and RAFi were screened against kinase panels (SelectScreen, Invitrogen; University of Dundee, Division of Signal Transduction Therapy, UK; Upstate Biotechnology/Millipore, Billerica, MA). In” for “In”

MAPK1/ERK2 = MAPK1/ERK2 (Homo sapiens, UniProt P28482); details: read-out: Dundee KSS % inhibition at 1uM
Chain of MAPK1/ERK2 (P28482 whole entry): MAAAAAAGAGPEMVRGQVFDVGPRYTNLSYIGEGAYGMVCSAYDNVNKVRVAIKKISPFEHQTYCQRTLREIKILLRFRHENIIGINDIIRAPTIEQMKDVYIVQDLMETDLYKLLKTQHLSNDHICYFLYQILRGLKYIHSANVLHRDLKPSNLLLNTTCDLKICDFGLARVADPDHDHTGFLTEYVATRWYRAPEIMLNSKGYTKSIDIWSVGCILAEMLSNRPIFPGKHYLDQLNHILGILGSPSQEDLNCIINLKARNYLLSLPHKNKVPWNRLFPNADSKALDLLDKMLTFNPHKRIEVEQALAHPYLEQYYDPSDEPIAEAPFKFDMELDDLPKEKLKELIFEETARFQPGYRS
Description: as §1, with “The METi and RAFi were screened against kinase panels (SelectScreen, Invitrogen; University of Dundee, Division of Signal Transduction Therapy, UK; Upstate Biotechnology/Millipore, Billerica, MA). In” for “In”

CHK1 = molecular target: T12, CHK1 (Homo sapiens, UniProt O14757); details: read-out: Dundee KSS % inhibition at 1uM
T12 construct: gene CHEK1
Description: as §1, with “The METi and RAFi were screened against kinase panels (SelectScreen, Invitrogen; University of Dundee, Division of Signal Transduction Therapy, UK; Upstate Biotechnology/Millipore, Billerica, MA). In” for “In”

MNK2 = molecular target: T13, MNK2 (Homo sapiens, UniProt Q9HBH9); details: read-out: Dundee KSS % inhibition at 1uM
T13 construct: gene MKNK2
Description: as §1, with “The METi and RAFi were screened against kinase panels (SelectScreen, Invitrogen; University of Dundee, Division of Signal Transduction Therapy, UK; Upstate Biotechnology/Millipore, Billerica, MA). In” for “In”

- inhibition at 1 µM (EPHB2): 53%
- inhibition at 1 µM (Rse): 4%
- inhibition at 1 µM (SAPK3): 10%
- inhibition at 1 µM (SRPK2): -2%
- inhibition at 1 µM (MELK): 2%
- inhibition at 1 µM (GSK3alpha): -7%
- inhibition at 1 µM (KDR): -9%
- inhibition at 1 µM (CAMKIIbeta): -6%
- inhibition at 1 µM (CDK2/CyclinA): 0%
- inhibition at 1 µM (WNK2): -16%
- inhibition at 1 µM (MLCK): -32%
- inhibition at 1 µM (FAK): -9%
- inhibition at 1 µM (PDGFRalpha): -28%
- inhibition at 1 µM (MEK1): -11%
- inhibition at 1 µM (DYRK2): -1%
- inhibition at 1 µM (PKCtheta): -10%
- inhibition at 1 µM (EPHB4): -23%
- inhibition at 1 µM (ALK): 54%
- inhibition at 1 µM (ZAP70): 3%
- inhibition at 1 µM (MAPKAPK3): 18.6%
- inhibition at 1 µM (JNK/SAPK1c): 4.04%
- inhibition at 1 µM (MAPK1/ERK2): -13%
- inhibition at 1 µM (CHK1): -1.96%
- inhibition at 1 µM (MNK2): 13.4%
SMILES: OCCn1cc(-c2cnc3nnn(Cc4ccc5ncccc5c4)c3n2)cn1 [METi, PF-04217903]
